Our source for the EC50 values is patent US20240270821A1, “GIP/GLP1/GCG TRI-RECEPTOR AGONISTS AND USES THEREOF” (priority 2023, published 2024).

Where two headings read alike, the source gives them in different places. Starred links: 1 amine or outer side, 2 acyl side, 3 side chain; linkers in the order of their positions; H or OH if unused. Non-standard residues stand in square brackets, D forms with d. Residues, ends and D or L forms follow the SMILES beside them. Groups on a side chain read outwards from the residue. No end group written: not given here. *: point of attachment. C18 diacid = O=C(O)CCCCCCCCCCCCCCCCC(=O)*; αMePhe(2-F) = C[C@](N)(Cc1ccccc1F)C(=O)O; γGlu = O=C(O)[C@H](CCC(=O)[*:2])N[*:1]; αMe4Pal = C[C@](N)(Cc1ccncc1)C(=O)O; αMeY = C[C@](N)(Cc1ccc(O)cc1)C(=O)O; αMeF = C[C@](N)(Cc1ccccc1)C(=O)O; 4Pal = N[C@@H](Cc1ccncc1)C(=O)O; αMeL = CC(C)C[C@](C)(N)C(=O)O; αMeS = C[C@](N)(CO)C(=O)O; Orn = NCCC[C@H](N)C(=O)O; AEEA = NCCOCCOCC(=O)O; Aib = CC(C)(N)C(=O)O

Holding throughout (assay type): cell-based
The target in test [1] is T1, hGIPR (Homo sapiens, UniProt P48546).
T1 sequence (P48546 22-466): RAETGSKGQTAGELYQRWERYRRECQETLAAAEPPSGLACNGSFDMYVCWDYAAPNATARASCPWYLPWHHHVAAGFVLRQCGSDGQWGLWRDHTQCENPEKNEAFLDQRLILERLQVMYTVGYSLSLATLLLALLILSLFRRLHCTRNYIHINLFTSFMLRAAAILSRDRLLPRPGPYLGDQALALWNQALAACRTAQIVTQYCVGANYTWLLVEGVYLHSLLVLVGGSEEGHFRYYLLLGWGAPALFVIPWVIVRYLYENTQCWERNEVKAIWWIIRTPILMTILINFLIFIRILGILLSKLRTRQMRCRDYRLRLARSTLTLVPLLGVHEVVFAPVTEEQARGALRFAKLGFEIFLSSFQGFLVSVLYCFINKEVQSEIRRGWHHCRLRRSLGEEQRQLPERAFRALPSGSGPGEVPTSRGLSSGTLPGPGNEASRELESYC
The experiment in a line: Functional cAMP activation in the presence of 0.1% casein (no HSA). To be noted: read-out: Relative cAMP EC50, hGIPR.

In test [2] the target is T2, hGLP-1R (Homo sapiens, UniProt P43220). The experiment in a line: Functional cAMP activity in the presence of 1% HSA. Particulars: read-out: cAMP Rel EC50, hGLP-1R.
T2 sequence (P43220 24-463): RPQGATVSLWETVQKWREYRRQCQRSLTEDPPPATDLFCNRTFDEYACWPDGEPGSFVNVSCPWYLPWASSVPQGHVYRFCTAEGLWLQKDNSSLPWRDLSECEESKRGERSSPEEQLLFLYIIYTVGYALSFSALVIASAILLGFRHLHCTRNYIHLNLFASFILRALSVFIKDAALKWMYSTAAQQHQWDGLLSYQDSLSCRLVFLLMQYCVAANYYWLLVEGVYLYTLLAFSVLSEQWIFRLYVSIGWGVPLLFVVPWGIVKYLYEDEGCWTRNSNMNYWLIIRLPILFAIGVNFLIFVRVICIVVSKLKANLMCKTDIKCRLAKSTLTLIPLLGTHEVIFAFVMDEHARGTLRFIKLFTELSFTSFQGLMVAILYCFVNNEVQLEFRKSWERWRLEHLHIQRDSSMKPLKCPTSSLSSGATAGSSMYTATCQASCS
For the next test, the target named is hGcgR (Homo sapiens, UniProt P47871). The experiment in a line: Functional cAMP activation in the presence of 0.1% casein (no HSA). Particulars: read-out: Relative cAMP EC50, hGcgR.
Sequence of hGcgR (P47871 26-477): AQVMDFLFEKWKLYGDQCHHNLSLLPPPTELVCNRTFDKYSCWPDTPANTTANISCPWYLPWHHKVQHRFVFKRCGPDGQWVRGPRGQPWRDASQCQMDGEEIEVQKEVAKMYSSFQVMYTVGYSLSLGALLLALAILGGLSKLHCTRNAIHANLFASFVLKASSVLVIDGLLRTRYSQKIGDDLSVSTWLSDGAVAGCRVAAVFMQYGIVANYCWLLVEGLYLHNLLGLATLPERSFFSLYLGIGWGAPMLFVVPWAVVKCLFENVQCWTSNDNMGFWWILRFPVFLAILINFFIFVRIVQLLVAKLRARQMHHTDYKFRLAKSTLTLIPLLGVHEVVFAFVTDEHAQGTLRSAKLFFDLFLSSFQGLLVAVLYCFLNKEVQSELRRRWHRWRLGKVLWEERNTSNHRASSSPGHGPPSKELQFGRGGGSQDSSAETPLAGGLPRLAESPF
In the next test the target is human GcgR (Homo sapiens, UniProt P47871). The experiment in a line: Functional cAMP activity in the presence of 1% HSA. To be noted: read-out: cAMP Rel EC50, hGcgR.
Sequence of human GcgR (P47871 26-477): as above
The target of test [3] is T1, hGIPR. The experiment in a line: Functional cAMP activity in the presence of 1% HSA. Particulars: read-out: cAMP Rel EC50, hGIPR.
Test [4] concerns the target T2, hGLP-1R. The experiment in a line: Functional cAMP activation in the presence of 0.1% casein (no HSA). To be noted: read-out: Relative cAMP EC50, hGLP-1R.
The mark [5] stands for this setting: in the presence of 0.1% casein (no HSA), geometric mean.
Setting [6] is: 0.1% casein, no HSA, geometric mean.

The term EC50 denotes the concentration giving half of the maximal effect.
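Wherever Relative cAMP EC50, hGIPR is given: intracellular cAMP rise after 30 min at 37 °C read by HTRF against a standard curve, scaled between buffer alone (0%) and top control ligand concentration (100%), four-parameter fit.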
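Wherever Relative cAMP EC50, hGLP-1R is given: intracellular cAMP rise after 30 min at 37 °C read by HTRF, normalized between buffer only (0%) and maximal control ligand (100%), four-parameter variable-slope fit.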
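Wherever Relative cAMP EC50, hGcgR is given: intracellular cAMP rise after 30 min at 37 °C, read by HTRF against a cAMP standard curve, scaled from buffer only (0%) to maximal control ligand response (100%).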

As to `CC[C@H](C)[C@H](NC(=O)[C@H](Cc1ccccc1)NC(=O)[C@H](C)NC(=O)C(C)(C)NC(=O)[C@H](CCC(N)=O)NC(=O)[C@H](C)NC(=O)[C@H](CCCCNC(=O)COCCOCCNC(=O)CC[C@H](NC(=O)CCCCCCCCCCCCCCCCC(=O)O)C(=O)O)NC(=O)[C@H](CCCCN)NC(=O)[C@H](CC(=O)O)NC(=O)[C@H](CC(C)C)NC(=O)[C@](C)(CC(C)C)NC(=O)[C@@H](NC(=O)[C@H](CO)NC(=O)[C@H](Cc1ccncc1)NC(=O)[C@H](CC(=O)O)NC(=O)[C@H](CO)NC(=O)[C@@H](NC(=O)[C@](C)(Cc1ccccc1F)NC(=O)[C@@H](NC(=O)CNC(=O)[C@H](CCC(N)=O)NC(=O)C(C)(C)NC(=O)[C@@H](N)Cc1ccc(O)cc1)[C@@H](C)O)[C@@H](C)O)[C@@H](C)CC)C(=O)N[C@@H](CCC(=O)O)C(=O)N[C@@H](Cc1ccc(O)cc1)C(=O)N[C@@H](CC(C)C)C(=O)N[C@@H](CCC(=O)O)C(=O)N[C@@H](CCC(=O)O)C(=O)NCC(=O)NCC(=O)N1CCC[C@H]1C(=O)N[C@@H](CO)C(=O)N[C@@H](CO)C(=O)NCC(=O)N[C@@H](C)C(=O)N1CCC[C@H]1C(=O)N1CCC[C@H]1C(=O)N1CCC[C@H]1C(=O)N[C@@H](CO)C(N)=O` [Example 422] (H-Y[Aib]QGT[αMePhe(2-F)]TSD[4Pal]SI[αMeL]LDKK([AEEA-γGlu-C18 diacid])AQ[Aib]AFIEYLEEGGPSSGAPPPS-NH2), the EC50 on hGIPR [1] was 0.0216 nM; on hGLP-1R [2], 27.1 nM; at hGcgR, 14.5 nM; at human GcgR it was 493 nM; on hGIPR [3] it was 4.4 nM; at hGLP-1R [4] it was 0.252 nM.
As to “Y[Aib]QGTFTSD[4Pal]SR[αMeL]LDKK([AEEA-γGlu-C18 diacid])AQ[αMe4Pal]AFIE[αMe4Pal]LIEGGPSSGAPPPSGS-NH2 [Example 950]”, the EC50 worked out at 0.18 nM on hGIPR [1] (setting [5]); 328 nM on hGLP-1R [2]; 1.92 nM at hGcgR (setting [5]); 327 nM on human GcgR; 18.1 nM at hGIPR [3]; 2.5 nM at hGLP-1R [4] (setting [5]).
“H-Y[Aib]QGTFTSD[4Pal]SQ[αMeL]LD[Orn]K([AEEA-γGlu-C18 diacid])AQ[αMe4Pal]AFIEYLIQ[Aib]GPSSGEPPPSGSEE-NH2 [Example 1096]”: the EC50 on hGIPR [1] (setting [5]) was found to be 0.0799 nM; at hGLP-1R [2], 194 nM; at hGcgR (setting [5]) it was 3.94 nM; at human GcgR, 397 nM; at hGIPR [3] it was 11.6 nM; on hGLP-1R [4] (setting [5]), 1.47 nM.
“H-Y[Aib]QGT[αMePhe(2-F)]TSD[4Pal][αMeS]I[αMeL]LD[Orn]QAQ[αMe4Pal]EFI[dE][αMeY]LVEGGPSSGAPPPSGS-NH2 [Example 1231]”: the EC50 at hGIPR [1] (setting [6]) was 0.0146 nM; on hGLP-1R [2], 1.22 nM; at hGcgR (setting [6]), 15.7 nM; at human GcgR, 17.1 nM; at hGIPR [3] it was 0.00994 nM; at hGLP-1R [4] (setting [6]), 1.23 nM.
For the compound “H-Y[Aib]QGTFTSD[4Pal]SQ[αMeL]LDKK([Glu-γGlu-C18 diacid])AQ[αMe4Pal]AFIEYLIE[Aib]GPSSGAPPPSGS-NH2 [Example 894]”, the EC50 on hGIPR [1] (setting [5]) was 0.0752 nM; at hGLP-1R [2], 711 nM; on hGcgR (setting [5]), 6.09 nM; at human GcgR, 2330 nM; at hGIPR [3], 30.9 nM; at hGLP-1R [4] (setting [5]) it was 2.01 nM.
Regarding “H-Y[Aib]QGT[αMePhe(2-F)]TSD[4Pal][αMeS]I[αMeL]LD[Orn]K([AEEA-γGlu-C18 diacid])AQ[αMe4Pal]EFI[dE][αMeY]LVEGGPSSGEPPPESE-NH2 [Example 1157]”, the EC50 on hGIPR [1] (setting [5]) was found to be 0.0124 nM; at hGLP-1R [2] it was 57.5 nM; on hGcgR (setting [5]) it was 2.04 nM; at human GcgR, 384 nM; on hGIPR [3] it was 1.28 nM; at hGLP-1R [4] (setting [5]) it was 0.408 nM.
Take “H-Y[Aib]QGTFTSD[4Pal]S[Orn][αMeL]LDKK([γGlu-γGlu-C18 diacid])AQ[αMe4Pal]AFIEYLIAGGPSSGEPPPSGTE-NH2 [Example 980]”: the EC50 on hGIPR [1] (setting [5]) is 0.18 nM; on hGLP-1R [2], 290 nM; on hGcgR (setting [5]) it was 2.41 nM; at human GcgR, 239 nM; at hGIPR [3], 15.4 nM; at hGLP-1R [4] (setting [5]) it was 2.26 nM.
Take `CC[C@H](C)[C@H](NC(=O)[C@H](Cc1ccccc1)NC(=O)[C@H](C)NC(=O)C(C)(C)NC(=O)[C@H](CCC(N)=O)NC(=O)[C@H](C)NC(=O)[C@H](CCCCNC(=O)COCCOCCNC(=O)CC[C@H](NC(=O)CCCCCCCCCCCCCCCCC(=O)O)C(=O)O)NC(=O)[C@H](CCCN)NC(=O)[C@H](CC(=O)O)NC(=O)[C@H](CC(C)C)NC(=O)[C@](C)(CC(C)C)NC(=O)[C@@H](NC(=O)[C@](C)(CO)NC(=O)[C@H](Cc1ccc(O)cc1)NC(=O)[C@H](CC(=O)O)NC(=O)[C@H](CO)NC(=O)[C@@H](NC(=O)[C@](C)(Cc1ccccc1)NC(=O)[C@@H](NC(=O)CNC(=O)[C@H](CCC(N)=O)NC(=O)C(C)(C)NC(=O)[C@@H](N)Cc1ccc(O)cc1)[C@@H](C)O)[C@@H](C)O)[C@@H](C)CC)C(=O)N[C@H](CCC(=O)O)C(=O)N[C@@H](Cc1ccc(O)cc1)C(=O)N[C@@H](CC(C)C)C(=O)N[C@@H](CC(C)C)C(=O)N[C@@H](CCC(=O)O)C(=O)NCC(=O)NCC(=O)N1CCC[C@H]1C(=O)N[C@@H](CO)C(=O)N[C@@H](CO)C(=O)NCC(=O)N[C@@H](CCC(=O)O)C(=O)N1CCC[C@H]1C(=O)N1CCC[C@H]1C(=O)N1CCC[C@H]1C(=O)N[C@@H](CCC(=O)O)C(N)=O` [Example 420] (H-Y[Aib]QGT[αMeF]TSDY[αMeS]I[αMeL]LD[Orn]K([AEEA-γGlu-C18 diacid])AQ[Aib]AFI[dE]YLLEGGPSSGEPPPE-NH2): the EC50 at hGIPR [1] was 0.0131 nM; on hGLP-1R [2] it was 31.3 nM; at hGcgR, 2.49 nM; on human GcgR, 433 nM; on hGIPR [3] it was 2.61 nM; at hGLP-1R [4], 0.205 nM.
On to “Y[Aib]QGTFTSD[4Pal]S[Orn][αMeL]LD[Orn]K([γGlu-γGlu-C18 diacid])AQ[αMe4Pal]QFIE[αMeY]LIEGGPSSGAPPPSGSEE-NH2 [Example 972]”, for which the EC50 stood at 0.34 nM on hGIPR [1] (setting [5]); 327 nM on hGLP-1R [2]; 4.19 nM at hGcgR (setting [5]); 660 nM at human GcgR; 30.4 nM on hGIPR [3]; 2.05 nM on hGLP-1R [4] (setting [5]).
For the compound “H-Y[Aib]QGTFTSD[4Pal]SQ[αMeL]LD[Orn]K([AEEA-γGlu-C18 diacid])AQ[Aib]AFIE[αMeY]LIEGGPSSGAPPPSGS-NH2 [Example 850]”, the EC50 is 0.346 nM at hGIPR [1] (setting [5]); 57.8 nM on hGLP-1R [2]; 28.4 nM at hGcgR (setting [5]); 3660 nM on human GcgR; 27 nM on hGIPR [3]; 0.451 nM on hGLP-1R [4] (setting [5]).
For the compound `CC[C@H](C)[C@H](NC(=O)[C@H](CO)NC(=O)[C@H](Cc1ccc(O)cc1)NC(=O)[C@H](CC(=O)O)NC(=O)[C@H](CO)NC(=O)[C@@H](NC(=O)[C@](C)(Cc1ccccc1F)NC(=O)[C@@H](NC(=O)CNC(=O)[C@H](CCC(N)=O)NC(=O)C(C)(C)NC(=O)[C@@H](N)Cc1ccc(O)cc1)[C@@H](C)O)[C@@H](C)O)C(=O)N[C@@H](CC(C)C)C(=O)N[C@@H](CC(C)C)C(=O)N[C@@H](CC(=O)O)C(=O)N[C@@H](CCCN)C(=O)N[C@@H](CCCCNC(=O)COCCOCCNC(=O)COCCOCCNC(=O)CC[C@H](NC(=O)CCCCCCCCCCCCCCCCC(=O)O)C(=O)O)C(=O)N[C@@H](C)C(=O)N[C@@H](CCC(N)=O)C(=O)NC(C)(C)C(=O)N[C@@H](C)C(=O)N[C@@H](Cc1ccccc1)C(=O)N[C@H](C(=O)N[C@H](CCC(=O)O)C(=O)N[C@@H](Cc1ccc(O)cc1)C(=O)N[C@@H](CC(C)C)C(=O)N[C@@H](CC(C)C)C(=O)N[C@@H](CCC(=O)O)C(=O)NCC(=O)NCC(=O)N1CCC[C@H]1C(=O)N[C@@H](CO)C(=O)N[C@@H](CO)C(=O)NCC(=O)N[C@@H](C)C(=O)N1CCC[C@H]1C(=O)N1CCC[C@H]1C(=O)N1CCC[C@H]1C(=O)N[C@@H](CO)C(N)=O)[C@@H](C)CC` [Example 427], the EC50 stood at 0.0121 nM on hGIPR [1]; 42.9 nM on hGLP-1R [2]; 3.81 nM on hGcgR; 1440 nM at human GcgR; 4.25 nM on hGIPR [3]; 0.282 nM at hGLP-1R [4].
For “H-Y[Aib]QGTFTSD[4Pal][αMeS]Q[αMeL]LD[Orn]K([dE-γGlu-C18 diacid])AQ[αMe4Pal]QFIQ[αMeY]LIAGGPSSGEPPPSGGGE-NH2 [Example 1133]”, the EC50 is 0.0719 nM on hGIPR [1] (setting [5]); 47.8 nM at hGLP-1R [2]; 2.95 nM at hGcgR (setting [5]); 216 nM on human GcgR; 4.24 nM on hGIPR [3]; 0.768 nM on hGLP-1R [4] (setting [5]).
